Measured values from patent US12246022B2, “Compositions and methods for treating, preventing or reversing age associated inflammation and disorders” (BROWN UNIVERSITY, priority 2019, dated 2025).
Read-outs that look alike come from different tables or passages of the source.

Tests used:
Type in all cases: cell-based
mouse LINE-1 = experiment: Mouse LINE-1 retrotransposition assay (dual luciferase pYX016 reporter, HeLa cells)
Method: Elvucitabine was obtained by custom synthesis. […] HeLa cervical cancer cells were cultivated at 37° C. in a humidified 5% CO2 incubator in Dulbecco's Modified Eagle's Medium (DMEM)-high glucose, with 4500 mg/L glucose, L-glutamine, sodium pyruvate and sodium bicarbonate (Sigma), supplemented with 10% of heat inactivated fetal bovine serum (Thermo Fisher). Assays were performed as described in Xie et al., 2011^151 with several modifications. The reporter assay was performed in 96 well white Optical bottom plates. 6000 HeLa cells were seeded in each well 24 hours prior transfection and compound treatment. All compounds were resuspended in DMSO. Stock solution concentrations varied from 50 mM to 1.25 mM depending of the solubility of the compound. Serial dilutions (1:3) were prepared in DMSO. Ten different concentrations of each compound were tested in triplicate. Medium containing different concentrations of the compounds were prepared by adding 2 μL of the compound dilution to 1 mL of the culture medium. The final concentration of DMSO in the medium was 0.2%. FuGENE® HD transfection reagent (Promega) was used to transfect the plasmid pYX016 into the cells. The transfection mix was prepared in OpiMEM (Thermo Fisher) using a reagent to DNA ratio of 3.5:1 according to manufacturer's instructions. Culture medium was removed from the cells and discarded. The transfection mix (5 μL) was mixed with the compound containing medium (100 μL/well) and this was added onto the cells of each well. Cells were incubated for 48H at 37° C./5% CO2. Luciferase reporter activity was quantified with the Dual-Luciferase® Reporter Assay System (Promega) according to manufacturer's instructions for multiwell plates with the following modification: Cells were lysed directly on the multiwell plate with 30 μL of the passive lysis buffer (PLB) for 20 min at room temperature, with gentle shaking to ensure complete cell lysis (instead of 20 μL of PLB for 15 min). Firefly and Renilla luciferase signals were measured using a SpectraMax i3x Multi-Mode Microplate Reader. […] Relative L1 activity was calculated as Firefly/Renilla *10,000. […] The experiment was performed twice, independently.

human LINE-1 = experiment: Human LINE-1 retrotransposition assay (dual luciferase pYX017 reporter, HeLa cells, Table 11)
Method: Assays were performed as described in Xie et al., 2011^151 with several modifications. The reporter assay was performed in 96 well white Optical bottom plates. 6000 HeLa cells were seeded in each well 24 hours prior transfection and compound treatment. All compounds were resuspended in DMSO. Stock solution concentrations varied from 50 mM to 1.25 mM depending of the solubility of the compound. Serial dilutions (1:3) were prepared in DMSO. Ten different concentrations of each compound were tested in triplicate. Medium containing different concentrations of the compounds were prepared by adding 2 μL of the compound dilution to 1 mL of the culture medium. The final concentration of DMSO in the medium was 0.2%. FuGENE® HD transfection reagent (Promega) was used to transfect the plasmid pYX016 into the cells. The transfection mix was prepared in OpiMEM (Thermo Fisher) using a reagent to DNA ratio of 3.5:1 according to manufacturer's instructions. Culture medium was removed from the cells and discarded. The transfection mix (5 μL) was mixed with the compound containing medium (100 μL/well) and this was added onto the cells of each well. Cells were incubated for 48H at 37° C./5% CO2. Luciferase reporter activity was quantified with the Dual-Luciferase® Reporter Assay System (Promega) according to manufacturer's instructions for multiwell plates with the following modification: Cells were lysed directly on the multiwell plate with 30 μL of the passive lysis buffer (PLB) for 20 min at room temperature, with gentle shaking to ensure complete cell lysis (instead of 20 μL of PLB for 15 min). Firefly and Renilla luciferase signals were measured using a SpectraMax i3x Multi-Mode Microplate Reader. […] Relative L1 activity was calculated as Firefly/Renilla *10,000. […] The experiment was performed twice, independently. […] Because the human construct yields a lower signal, compounds were incubated with cells for 72 hours instead of 48 hours, and cells were seeded at a density of 2000/well instead of 6000/well. In addition, the transfection reagent to DNA ratio was 2:1 instead of 3.5:1.

HeLa cells = experiment: Cell viability assay (CellTiter-Glo); conditions: doses up to 2 μM
Method: As described above, the toxicity of RTIs could impair their ability to halt or block the harmful effects of senescent cells and their ability to prevent or reverse age-related inflammation and disorders.
HeLa cells were treated with the different concentrations of the eight RTI compounds for 48 hours. Cell viability was measured with CellTiter-Glo® luminescent cell viability assay (Promega®) and presented as percentage of cell viability versus untreated cells. Staurosporine, known to induce cell death, was used as a control.

SMILES: Nc1nc(=O)n([C@@H]2C=C[C@H](CO)O2)cc1F [Elvucitabine]
- IC50 (mouse LINE-1; pYX016, 48 H post-transfection, read-out: Mouse L1 activity inhibition IC50, Exp. 1): 116 nM
- IC50 (mouse LINE-1; pYX016, 48 H post-transfection, read-out: Mouse L1 activity inhibition IC50, Exp. 2): 106 nM
- IC50 (mouse LINE-1; pYX016, 48 H, n = 2, read-out: Mouse L1 activity inhibition IC50, Average): 111 nM
- IC50 (mouse LINE-1; read-out: mouse L1 inhibition IC50): ~100 nM
- IC50 (human LINE-1; pYX017, 72 H post-transfection, read-out: Human L1 activity inhibition IC50, Exp. 1): 94 nM
- IC50 (human LINE-1; read-out: human L1 inhibition IC50): ~100 nM
- toxicity in the cell viability assay (HeLa cells): without inducing toxicity
